The text below walks through data of ChEMBL document CHEMBL1129376, “Localizing antithrombotic and vasodilatory activity with a novel, ultrafast nitric oxide donor” (J Med Chem, 1996).

The subject of data set [1] is Ovis aries. Put plainly: Intravenous dose of compound that lowered pulmonary arterial pressure (PAP) in ovine pulmonary hypertension model; Range is 0.8-13 nM/kg min. The data set is classed as functional, organism-based. To be noted: Artery.
The test system of data set [2] is Ovis aries. Put plainly: Intravenous dose of compound that lowered systemic arterial pressure (SAP) in ovine pulmonary hypertension model; Range is 0.8-13 nM/kg min. It counts as functional, organism-based. The note with it: Artery.
Data set [3] is described as follows: Half life of compound for dissociation in DETA and NO. It counts as ADME.
Data set [4] can be described thus: Rate constant of compound for dissociation in proline and NO. The data set is classed as ADME.
Data set [5] deals with Ovis aries. Put plainly: Intravenous dose of compound that lowered systemic arterial pressure following in ovine pulmonary hypertension model. The data set is classed as functional, Artery.
Data set [6] concerns Ovis aries. Briefly: Pulmonary arterial pressure (PAP) in sheep on i.v. administration of 24 nM/ kg min. The data set is classed as functional, Artery.
The nature of data set [7]: Half life of compound for dissociation in proline and NO. The data set is classed as ADME.
Data set [8] has as its system Ovis aries. Briefly: Intravenous dose that lowered pulmonary arterial pressure withouteffect on systemic hemodynamics in sheep with drug-induced pulmonary hypertension. It counts as functional, Artery.

Turning to SODIUM NITROPRUSSIDE, the Dose (nM min-1 kg-1) in data set [1] and in data set [2] was 13 each time.

In turn, `NCCN(CCN)/[N+]([O-])=N/O` had a half-life in data set [3] of 20 h.

As to `O=C([O-])[C@H]1CCCN1/[N+]([O-])=N/[O-].[Na+].[Na+]`, the Rate constant in data set [4] is 0.39 s⁻¹. In addition, the Dose in data set [5] came out at 48 nM/min/kg; in data set [8] it was 24 nM/min/kg. Besides, in data set [6], the PAP is 9 mmHg. Further, the T1/2 in data set [7] was 1.8 s.
